Some test systems named below: SK-MEL-28 melanoma; CCRF-CEM leukemia; HCT-15 colon; EKVX NSCLC; HCT-116 colon; SK-MEL-2 melanoma; MCF7 breast; U251 CNS; SN12C renal; KM12 colon.
Experiment in all cases: NCI-60 cell line screen, 48 h

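Growth conditions: 96-well plates. Treatment: test compound, 48 hours, 5 concentrations. Analysis: linear interpolation between bracketing concentrations; unreached endpoints set to highest concentration. At the GI50, growth is halved. Definition used: TGI = concentration required for complete inhibition of growth.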

In the case of `O=C(COc1cccc(/C=C2\Oc3ccc4ccccc4c3C2=O)c1)c1ccc(Cl)cc1`, the GI50 is more than 100 µM in the assay on SK-MEL-28 melanoma; 2.92 µM in the assay with CCRF-CEM leukemia; 33 µM in the assay with HCT-15 colon; more than 100 µM with EKVX NSCLC; 2.97 µM with HCT-116 colon; more than 100 µM with SK-MEL-2 melanoma. Also, the GI50 in the assay on MCF7 breast was 10.7 µM; in the assay with U251 CNS, 27.2 µM; in the assay with SN12C renal it was 16.8 µM; in the assay on KM12 colon, 30.2 µM. For the same compound, the TGI was more than 100 µM in the assay with SK-MEL-28 melanoma; 8.39 µM with CCRF-CEM leukemia; more than 100 µM in the assay with HCT-15 colon; more than 100 µM with EKVX NSCLC; 10.5 µM with HCT-116 colon; more than 100 µM in the assay on SK-MEL-2 melanoma. The TGI is 22.6 µM with MCF7 breast, more than 100 µM in the assay with U251 CNS, 37.5 µM in the assay on SN12C renal and more than 100 µM in the assay on KM12 colon.

Regarding `Cc1cc(N(CCCNc2ccnc3cc(Cl)ccc23)Cc2ccc3c(c2)OCO3)nc(N2CCCCC2)n1`, the GI50 with SK-MEL-28 melanoma is 1.94 µM; with CCRF-CEM leukemia it was 2.92 µM; in the assay on HCT-15 colon, 1.42 µM; with EKVX NSCLC, 2.56 µM; in the assay on HCT-116 colon it was 1.35 µM; in the assay on SK-MEL-2 melanoma, 1.94 µM. Also, the GI50 with MCF7 breast is 1.77 µM; in the assay on U251 CNS, 2.06 µM; with SN12C renal, 2.87 µM; in the assay on KM12 colon it was 2.15 µM. Further, the TGI was 3.66 µM with SK-MEL-28 melanoma; more than 100 µM in the assay with CCRF-CEM leukemia; 3.05 µM with HCT-15 colon; 38 µM in the assay with EKVX NSCLC; 3.28 µM in the assay on HCT-116 colon; 3.77 µM in the assay with SK-MEL-2 melanoma. The TGI was 4.84 µM in the assay with MCF7 breast, 4.65 µM with U251 CNS, 12 µM in the assay on SN12C renal and 5.39 µM with KM12 colon.

For the compound `CCOc1nccc2c1nc(-c1nonc1N)n2CC`, the GI50 in the assay with SK-MEL-28 melanoma, with CCRF-CEM leukemia, with HCT-15 colon, in the assay on EKVX NSCLC, with HCT-116 colon and in the assay with SK-MEL-2 melanoma was more than 25 µM in each case. Moreover, the GI50 in the assay with MCF7 breast, in the assay on U251 CNS, in the assay on SN12C renal and in the assay on KM12 colon was more than 25 µM in each case. Also, the TGI in the assay on SK-MEL-28 melanoma, with CCRF-CEM leukemia, in the assay with HCT-15 colon, in the assay on EKVX NSCLC, in the assay with HCT-116 colon and in the assay on SK-MEL-2 melanoma was more than 25 µM in each case. The TGI with MCF7 breast, in the assay on U251 CNS, in the assay on SN12C renal and with KM12 colon was more than 25 µM each time.

As to `COc1cc(F)c(/C=C/c2cc(/C=C/c3cc(OC)c(OC)cc3F)n(-c3cc(F)cc(F)c3)n2)cc1OC`, the GI50 was 2.36 µM with SK-MEL-28 melanoma; 37.5 µM in the assay on CCRF-CEM leukemia; 2.84 µM in the assay with HCT-15 colon; 4.94 µM in the assay with EKVX NSCLC; 3.13 µM in the assay on HCT-116 colon; 3.08 µM in the assay on SK-MEL-2 melanoma. The GI50 was 2.99 µM in the assay with MCF7 breast, 1.69 µM with U251 CNS, 2.04 µM in the assay with SN12C renal and 3.3 µM in the assay on KM12 colon. Also, the TGI in the assay with SK-MEL-28 melanoma is 5.75 µM; in the assay with CCRF-CEM leukemia, more than 100 µM; in the assay with HCT-15 colon it was 9.05 µM; with EKVX NSCLC it was 55.9 µM; in the assay on HCT-116 colon, 13.1 µM; in the assay on SK-MEL-2 melanoma, 10.3 µM. In addition, the TGI with MCF7 breast was determined as 17.3 µM; with U251 CNS, 3.15 µM; in the assay on SN12C renal it was 4.42 µM; in the assay with KM12 colon, 12.8 µM.

Take `Nc1ccc(C(OC(=O)c2cc3ccccc3c(Cc3c(O)c(C(=O)OC(c4ccc(N)cc4)(c4ccc(N)cc4)c4ccc(N)cc4)cc4ccccc34)c2O)(c2ccc(N)cc2)c2ccc(N)cc2)cc1`: the GI50 is 3.49 µM with SK-MEL-28 melanoma; 3.03 µM in the assay on CCRF-CEM leukemia; 4.01 µM with HCT-15 colon; 2.37 µM with EKVX NSCLC; 0.784 µM in the assay on HCT-116 colon; 1.4 µM in the assay on SK-MEL-2 melanoma. Also, the GI50 in the assay on MCF7 breast was 0.623 µM; in the assay with U251 CNS it was 0.248 µM; in the assay on SN12C renal, 0.321 µM; in the assay on KM12 colon it was 0.608 µM. For the same compound, the TGI in the assay with SK-MEL-28 melanoma was 16.4 µM; in the assay on CCRF-CEM leukemia it was more than 100 µM; in the assay with HCT-15 colon, more than 100 µM; in the assay with EKVX NSCLC, more than 100 µM; in the assay on HCT-116 colon, 11.4 µM; with SK-MEL-2 melanoma, 4.55 µM. Moreover, the TGI was 12.4 µM in the assay on MCF7 breast, 12.6 µM in the assay with U251 CNS, 59.1 µM with SN12C renal and 12.7 µM in the assay with KM12 colon.

For the compound `C=C1C(OC/C=C/COC2O[C@@H]3O[C@@]4(C)CC[C@H]5[C@H](C)CC[C@@H](C2=C)[C@@]35OO4)O[C@@H]2O[C@@]3(C)CC[C@H]4[C@H](C)CC[C@@H]1[C@@]24OO3` (stereo not given in full), the GI50 in the assay with SK-MEL-28 melanoma was 12.3 µM; in the assay with CCRF-CEM leukemia it was 0.0325 µM; in the assay with HCT-15 colon, less than 0.0194 µM; in the assay with EKVX NSCLC, 11.5 µM; in the assay on HCT-116 colon it was 0.0907 µM; in the assay on SK-MEL-2 melanoma it was 16 µM. In addition, the GI50 is 0.0801 µM with MCF7 breast, 12.1 µM with U251 CNS, 1.33 µM in the assay on SN12C renal and less than 0.024 µM with KM12 colon. In addition, the TGI in the assay on SK-MEL-28 melanoma is 52.2 µM; in the assay with CCRF-CEM leukemia it was more than 40 µM; in the assay on HCT-15 colon, 16 µM; in the assay with EKVX NSCLC, 31.9 µM; with HCT-116 colon, 16.6 µM; with SK-MEL-2 melanoma, more than 100 µM. In addition, the TGI in the assay on MCF7 breast worked out at 16.2 µM; in the assay with U251 CNS, 25.7 µM; in the assay with SN12C renal it was 46.5 µM; in the assay on KM12 colon it was 0.778 µM.

In the case of `C=C(CNC(=O)c1ccccc1)c1ccc(C(=O)Nc2ccccc2N)cc1`, the GI50 is 14 µM with SK-MEL-28 melanoma; 0.493 µM in the assay on CCRF-CEM leukemia; 8.14 µM in the assay with HCT-15 colon; more than 100 µM with EKVX NSCLC; 1.6 µM with HCT-116 colon; 5.2 µM in the assay with SK-MEL-2 melanoma. Also, the GI50 in the assay on MCF7 breast is 3.2 µM; in the assay with U251 CNS it was 5.43 µM; with SN12C renal, 1.09 µM; in the assay on KM12 colon it was 5.11 µM. Further, the TGI in the assay on SK-MEL-28 melanoma was more than 100 µM; in the assay with CCRF-CEM leukemia, 8.38 µM; with HCT-15 colon, more than 100 µM; with EKVX NSCLC it was more than 100 µM; in the assay on HCT-116 colon it was 15.2 µM; in the assay with SK-MEL-2 melanoma it was more than 100 µM. Further, the TGI with MCF7 breast is more than 100 µM; with U251 CNS it was 74.5 µM; in the assay on SN12C renal, 8.93 µM; in the assay on KM12 colon, more than 100 µM.
